The assay relates to Plasmodium berghei. Kind of assay: Luciferase/luciferin-expressing antifolate-resistant parasites were used to infect a culture of HepG2 cells that were pre-incubated with compounds. Infected hepatocytes emit light due to the luciferase reaction. Assay results are presented as the percent inhibition of light emission compared to control. […]. Type of assay: functional. As to conditions: sporozoite; for IC90: read-out: LUCIFERASE INFECTION ASSAY - IC90.

Setting [1] is: read-out: LUCIFERASE INFECTION ASSAY - IC50.

Take `Cc1nn(C)c(C)c1CC(=O)Nc1ccc(-n2cnc3ccccc32)cc1`: the IC90 is more than 10 µM. In addition, the IC50 (HEPG2TOX_HILL_SLOPE 0.764, HEPG2TOX_R_SQUARED 0.908, PBLUC_HILL_SLOPE 0.735, PBLUC_R_SQUARED 0.618, read-out: LUCIFERASE INFECTION ASSAY - IC50) came out at 1.31 µM.
For `CC(C)c1nc2cc(NC(=O)CSc3nnnn3C3CC3)ccc2o1`, the IC90 is more than 10 µM. Moreover, for the setting “PBLUC_HILL_SLOPE 2.34, PBLUC_R_SQUARED 0.391, read-out: LUCIFERASE INFECTION ASSAY - IC50”, the IC50 came out at 3.99 µM.
Take `COC(=O)c1cc(NC(=O)Nc2cc(Cl)cc(Cl)c2)ccc1N1CCOCC1`: the IC90 turned out to be 4.16 µM. For the setting “PBLUC_HILL_SLOPE 7.3, PBLUC_R_SQUARED 0.704, read-out: LUCIFERASE INFECTION ASSAY - IC50”, the IC50 stood at 3.08 µM.
`O=C(COc1ccc2[nH]c3ccccc3c(=O)c2c1)N1c2ccccc2OCC1c1ccccc1` (stereo not given): the IC90 was 0.0412 µM. Moreover, the IC50 (FFLUC_HILL_SLOPE 10.4, FFLUC_R_SQUARED 0.204, PBLUC_HILL_SLOPE 2.2, PBLUC_R_SQUARED 0.922, read-out: LUCIFERASE INFECTION ASSAY - IC50) was determined as 0.0152 µM.
Take `CSc1ncccc1C(=O)Nc1nc(-c2ccc3ccccc3c2)cs1`: the concentration for an effect of 90% (IC90) is more than 10 µM. For the setting “FFLUC_HILL_SLOPE 11.5, FFLUC_R_SQUARED 0.449, read-out: LUCIFERASE INFECTION ASSAY - IC50”, the IC50 was more than 10 µM.
As for `OCc1ccccc1-c1cn2c(-c3ccc4c(c3)OCO4)cnc2cn1`, the IC90 is more than 9.56 µM. Further, the IC50 (HEPG2TOX_HILL_SLOPE 2.34, HEPG2TOX_R_SQUARED 0.695, PBLUC_HILL_SLOPE 2.89, PBLUC_R_SQUARED 0.35, read-out: LUCIFERASE INFECTION ASSAY - IC50) came to 8.14 µM.
`Fc1cccc(-c2cn3c(-c4ccc5ncccc5c4)cnc3cn2)c1`: the IC90 turned out to be 0.986 µM. The IC50 (HEPG2TOX_HILL_SLOPE 1.51, HEPG2TOX_R_SQUARED 0.947, PBLUC_HILL_SLOPE 2.49, PBLUC_R_SQUARED 0.764, read-out: LUCIFERASE INFECTION ASSAY - IC50) worked out at 0.408 µM.
On to `Cc1cc(C(=O)NN2Cc3ccccc3C2=N)c(C)n1-c1ccccc1`, for which the IC90 is more than 10 µM. Besides, the IC50 (HEPG2TOX_HILL_SLOPE 1.03, HEPG2TOX_R_SQUARED 0.677, read-out: LUCIFERASE INFECTION ASSAY - IC50) is more than 10 µM.
As to `COC(=O)c1cc(C(=O)OC)cc(-n2c(C)cc(C(O)(C(=O)OC)C(F)(F)F)c2C)c1` (stereo not given), the IC90 is more than 10 µM. Also, under setting [1], the IC50 was more than 10 µM.
As for `CC(C)c1cc(NCc2ccccn2)n2ncc(-c3ccccc3)c2n1`, the IC90 was found to be 3.94 µM. Under “PBLUC_HILL_SLOPE 12.5, PBLUC_R_SQUARED 0.318, read-out: LUCIFERASE INFECTION ASSAY - IC50”, the IC50 stood at 3.3 µM.
As to `CC(C)(C)c1ccc(-c2nnc(SCc3ccccc3Cl)n2-c2cccc(C(F)(F)F)c2)cc1`, the IC90 is more than 6.57 µM. Also, the IC50 (PBLUC_HILL_SLOPE 55, PBLUC_R_SQUARED 0.768, read-out: LUCIFERASE INFECTION ASSAY - IC50) was 6.56 µM.
In the case of `C=c1onc(-c2c(F)cccc2Cl)c1=C1NC(c2ccccn2)=NO1`, the IC90 was more than 9.25 µM. In addition, the IC50 (PBLUC_HILL_SLOPE 3.2, PBLUC_R_SQUARED 0.36, read-out: LUCIFERASE INFECTION ASSAY - IC50) came to 6.04 µM.
Regarding `Cc1onc(-c2ccccc2)c1-c1ccnn1C(=O)Nc1cccc(C(F)(F)F)c1`, the concentration for an effect of 90% (IC90) was more than 8 µM. Further, the IC50 (PBLUC_HILL_SLOPE 13.1, PBLUC_R_SQUARED 0.207, read-out: LUCIFERASE INFECTION ASSAY - IC50) was 7.19 µM.
With `Nc1nc(Nc2cc(Cl)cc(Cl)c2)c2[nH]cnc2n1`, the IC90 worked out at 8.62 µM. The IC50 (PBLUC_HILL_SLOPE 2.21, PBLUC_R_SQUARED 0.753, read-out: LUCIFERASE INFECTION ASSAY - IC50) worked out at 3.18 µM.
For the molecule `CC(=O)O[C@H]1C[C@@H](O[C@@H]2C(C)O[C@H](O[C@@H]3C(C)O[C@@H](O[C@H]4CC[C@@]5(C)C(CCC6C5C[C@@H](O)[C@]5(C)[C@@H](C7=CC(=O)OC7)CC[C@]65O)C4)C[C@@H]3O)C[C@@H]2O)OC(C)[C@H]1O[C@@H]1O[C@H](CO)[C@@H](O)[C@H](O)[C@H]1O` (stereo not given in full), the IC90 was more than 3.35 µM. The IC50 (HEPG2TOX_HILL_SLOPE 2.2, HEPG2TOX_R_SQUARED 0.634, PBLUC_HILL_SLOPE 2.28, PBLUC_R_SQUARED 0.618, read-out: LUCIFERASE INFECTION ASSAY - IC50) is 1.57 µM.
For the molecule `Cn1c(N)c(Sc2ccccc2[N+](=O)[O-])c(=O)n(C)c1=O`, the IC90 is more than 10 µM. Further, the IC50 under setting [1] was more than 10 µM.
`COc1cc(NC(=O)c2sccc2Oc2ccccc2[N+](=O)[O-])c(Cl)cc1Cl`: the IC90 was more than 7.51 µM. For the same molecule, under setting [1], the IC50 was more than 7.51 µM.
For `Cc1cc(-c2onc(C)c2C(=O)Sc2ccccc2)no1`, the IC90 was more than 11 µM. Moreover, under “FFLUC_HILL_SLOPE 12.1, FFLUC_R_SQUARED 0.567, PBLUC_HILL_SLOPE 1.05, PBLUC_R_SQUARED 0.41, read-out: LUCIFERASE INFECTION ASSAY - IC50”, the IC50 is more than 11 µM.
As to `O=C(NC1CC1)c1ccc(CN(C2CC2)S(=O)(=O)c2ccccc2[N+](=O)[O-])cc1`, the IC90 amounted to 3.74 µM. For the same molecule, the IC50 under setting [1] came to 3.41 µM.
Regarding `COc1ccccc1N(Cc1ccccc1)S(=O)(=O)c1cccc(C(=O)NC2CC(C)(C)NC(C)(C)C2)c1`, the IC90 stood at 9.9 µM. The IC50 (PBLUC_HILL_SLOPE 145, PBLUC_R_SQUARED 0.235, read-out: LUCIFERASE INFECTION ASSAY - IC50) stood at 9.75 µM.
As for `CC(Oc1ccc(C#N)cc1)C(=O)Nc1nc(-c2ccccn2)cs1` (stereo not given), the IC90 was 3.36 µM. Moreover, where the note is “HEPG2TOX_HILL_SLOPE 1.33, HEPG2TOX_R_SQUARED 0.927, PBLUC_HILL_SLOPE 145, PBLUC_R_SQUARED 0.223, read-out: LUCIFERASE INFECTION ASSAY - IC50”, the IC50 stood at 3.31 µM.
Consider `O=c1[nH]c2ccc(-c3csc(Nc4ccc(Cl)cc4)n3)cc2o1`, for which the IC90 was more than 10 µM. Further, the concentration for half-maximal inhibition (IC50) (HEPG2TOX_HILL_SLOPE 16.7, HEPG2TOX_R_SQUARED 0.933, PBLUC_HILL_SLOPE 4.05, PBLUC_R_SQUARED 0.109, read-out: LUCIFERASE INFECTION ASSAY - IC50) was 7.81 µM.
Regarding `c1ccc(-c2cn3c(-c4ccc5ncccc5c4)cnc3cn2)cc1`, the IC90 is 2.41 µM. Where the note is “HEPG2TOX_HILL_SLOPE 1.31, HEPG2TOX_R_SQUARED 0.967, PBLUC_HILL_SLOPE 1.9, PBLUC_R_SQUARED 0.856, read-out: LUCIFERASE INFECTION ASSAY - IC50”, the IC50 was determined as 0.759 µM.
With `CCN(c1ccc(NC(=S)Nc2cccc3ccccc23)cc1)C(C)C`, the IC90 is more than 10 µM. Also, the IC50 (HEPG2TOX_HILL_SLOPE 1.56, HEPG2TOX_R_SQUARED 0.289, PBLUC_HILL_SLOPE 3.28, PBLUC_R_SQUARED 0.342, read-out: LUCIFERASE INFECTION ASSAY - IC50) was determined as 5.97 µM.
In the case of `CC(C)(C)c1ccc(-c2cc3[nH]c(-c4ccccc4)cc(=O)n3n2)cc1`, the IC90 was 3.76 µM. The half-inhibitory concentration (IC50) (HEPG2TOX_HILL_SLOPE 2.71, HEPG2TOX_R_SQUARED 0.618, PBLUC_HILL_SLOPE 3.36, PBLUC_R_SQUARED 0.487, read-out: LUCIFERASE INFECTION ASSAY - IC50) came to 1.95 µM.
Turning to `Nc1cc(C(F)(F)F)ccc1Oc1ccc(Cl)cc1Cl`, the IC90 is more than 10.2 µM. In addition, the IC50 under setting [1] was more than 10.2 µM.
For the molecule `Cc1ccc(S(=O)(=O)c2ccc(NNS(=O)(=O)c3cccc([N+](=O)[O-])c3)cc2)cc1`, the IC90 is more than 10 µM. Moreover, under setting [1], the IC50 was more than 10 µM.
Turning to `O=c1cc(CSc2nc3ccccc3c(=O)n2Cc2ccccc2)c2cc(O)c(O)cc2o1`, the IC90 is more than 10 µM. Besides, under “FFLUC_HILL_SLOPE 22, FFLUC_R_SQUARED 0.332, read-out: LUCIFERASE INFECTION ASSAY - IC50”, the IC50 is more than 10 µM.
`O=C1N=C(Nc2cccnc2)S/C1=C/c1ccc2ncccc2c1`: the IC90 was 9.5 µM. In addition, the IC50 (HEPG2TOX_HILL_SLOPE 7.45, HEPG2TOX_R_SQUARED 0.476, PBLUC_HILL_SLOPE 2.82, PBLUC_R_SQUARED 0.798, read-out: LUCIFERASE INFECTION ASSAY - IC50) was determined as 4.36 µM.
Take `O=C(/C=C/c1ccco1)Nc1ccc(Cl)cc1Cl`: the IC90 came to 11.1 µM. The IC50 under setting [1] was found to be 9.77 µM.
For the molecule `COc1ccc(-c2cnc3cnc(-c4cnn(C)c4)cn23)cn1`, the IC90 is more than 10.8 µM. Further, under “PBLUC_HILL_SLOPE 3.07, PBLUC_R_SQUARED 0.552, read-out: LUCIFERASE INFECTION ASSAY - IC50”, the IC50 came out at 6.4 µM.
As for `CC(C)OCc1cccc(NC(=O)Nc2cccc(Cl)c2)c1`, the IC90 was determined as 1.8 µM. The IC50 (HEPG2TOX_HILL_SLOPE 8.19, HEPG2TOX_R_SQUARED 0.0219, PBLUC_HILL_SLOPE 262, PBLUC_R_SQUARED 0.512, read-out: LUCIFERASE INFECTION ASSAY - IC50) was determined as 1.78 µM.
In the case of `NC(c1csc(Nc2nccc(C(F)(F)F)n2)n1)C1CCCCC1` (stereo not given), the IC90 came out at 3.66 µM. The IC50 under setting [1] was found to be 2.8 µM.
In the case of `Cn1ccnc1C(=O)NNc1ncc(C(F)(F)F)cc1Cl`, the IC90 is 1.21 µM. Where the note is “HEPG2TOX_HILL_SLOPE 1.64, HEPG2TOX_R_SQUARED 0.948, PBLUC_HILL_SLOPE 15.2, PBLUC_R_SQUARED 0.698, read-out: LUCIFERASE INFECTION ASSAY - IC50”, the IC50 worked out at 1.04 µM.
In the case of `Clc1ccc(-c2csc3ncnc(Sc4nnnn4C4CC4)c23)cc1`, the IC90 is more than 10 µM. The IC50 (HEPG2TOX_HILL_SLOPE 2.99, HEPG2TOX_R_SQUARED 0.963, PBLUC_HILL_SLOPE 2.19, PBLUC_R_SQUARED 0.132, read-out: LUCIFERASE INFECTION ASSAY - IC50) was 8.41 µM.

Source of the values: ChEMBL document CHEMBL4483862, “Open-source discovery of chemical leads for next-generation chemoprotective antimalarials” (2018).
